Positions count from the first letter of the chain named. Several values for one entry are separate records, joined by “and”; a condition that tells them apart may be missing. Equal entries are not always repeated.
Key:
ALK1 [1] = molecular target: T1, ALK1 (Bos taurus, UniProt A4FUX2); experiment: HTRF pSMAD1 cell-based ALK1 assay (BAOEC cells, BMP9 as agonist); parameters: species or system Bovine
T1 construct: The BAOEC cell line was employed for the measurement of ALK1 activity using BMP9 as the agonist; host or cells: BAOEC (bovine aortic endothelial cells)
T1 sequence (A4FUX2 23-503): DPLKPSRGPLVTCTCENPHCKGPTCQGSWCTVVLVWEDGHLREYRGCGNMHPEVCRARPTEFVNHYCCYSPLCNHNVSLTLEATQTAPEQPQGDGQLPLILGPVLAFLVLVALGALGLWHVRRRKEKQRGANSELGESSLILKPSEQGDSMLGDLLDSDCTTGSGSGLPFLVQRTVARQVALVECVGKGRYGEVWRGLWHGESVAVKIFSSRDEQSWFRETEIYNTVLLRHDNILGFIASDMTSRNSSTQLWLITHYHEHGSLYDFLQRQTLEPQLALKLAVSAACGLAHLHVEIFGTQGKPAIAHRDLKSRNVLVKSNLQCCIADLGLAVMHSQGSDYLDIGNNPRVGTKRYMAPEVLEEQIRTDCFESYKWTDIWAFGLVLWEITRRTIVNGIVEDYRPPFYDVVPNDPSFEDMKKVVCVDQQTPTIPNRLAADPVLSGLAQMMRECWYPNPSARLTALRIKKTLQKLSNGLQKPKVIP
Description: 2. HTRF Cell-Based ALK1 and ALK2 Assays in 384-Well Plate Format We have developed a cell based ALK1 kinase assay and a cell-based ALK2 assay. The BAOEC cell line was employed for the measurement of ALK1 activity using BMP9 as the agonist. The C2C12 cell line was selected for the measurement of ALK2 activity using BMP6 as the agonist. The kinase specificity was defined by the specific cell line and agonist. The kinase activity was determined by the status of SMD 1/5/8 phosphorylation stimulated by the agonist.
HyClone Fetal Bovine Serum was obtained from GE healthcare life sciences (Logan, Utah). BMP6 and BMP9 were purchased from R&D System. […] The compound plates and the white solid MB assay plates were purchased from Greiner Bio-one (Monroe, N.C.).
(§1) HTRF optimization experiments were performed in 384 well plate format. […] Pre-starved cells were then plated in 384 well plate in the starvation medium (containing in 0.1% FBS). After 4 hours, compounds were added to the assay plate and incubated for 30 minutes. The assay plate was then added with BMP6 for C2C12 cells or BMP9 for BAOEC cells and incubated for 30 minutes.
HTRF assay was performed to measure the status of SMAD 1 phosphorylation after stimulated with the agonist (Table 3). This HTRF phospho SMAD1 cell assay was developed and optimized for the homogenous detection of phospho SMAD 1 levels in cells. […] The plate was incubated at room temperature for overnight.

ALK2 [2] = molecular target: T2, ALK2 (Mus musculus, UniProt P37172); experiment: HTRF pSMAD1 cell-based ALK2 assay (C2C12 cells, BMP6 as agonist)
T2 construct: The C2C12 cell line was selected for the measurement of ALK2 activity using BMP6 as the agonist; host or cells: C2C12
T2 sequence (P37172 21-509): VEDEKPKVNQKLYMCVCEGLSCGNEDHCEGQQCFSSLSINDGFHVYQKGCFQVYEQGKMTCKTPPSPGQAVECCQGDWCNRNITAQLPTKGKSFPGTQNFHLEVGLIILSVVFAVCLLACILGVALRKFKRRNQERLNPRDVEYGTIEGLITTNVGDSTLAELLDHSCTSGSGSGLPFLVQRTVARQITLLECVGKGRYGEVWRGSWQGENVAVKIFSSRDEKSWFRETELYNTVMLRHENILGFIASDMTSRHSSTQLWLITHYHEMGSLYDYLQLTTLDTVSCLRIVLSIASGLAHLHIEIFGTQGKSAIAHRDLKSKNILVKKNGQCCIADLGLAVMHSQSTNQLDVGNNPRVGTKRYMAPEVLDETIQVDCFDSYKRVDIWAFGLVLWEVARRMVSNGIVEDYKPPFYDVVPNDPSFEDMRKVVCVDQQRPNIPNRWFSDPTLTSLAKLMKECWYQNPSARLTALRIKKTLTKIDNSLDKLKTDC
In short: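 Cells pre-starved, plated in 0.1% FBS medium for 4 h, compound added for 30 min, then stimulated 30 min with BMP9 (BAOEC) or BMP6 (C2C12). Phospho-SMAD1 measured by HTRF after overnight room-temperature detection incubation.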

BMP4 = BMP4 HTRF assay; format: cell-based
[3] = Cell-based assay, TGFb1 (Cell IC50)
ALK1 [4] = molecular target: ALK1 (Homo sapiens, UniProt P37023); experiment: TR-FRET enzymatic ALK kinase assay, ALK1
Description: (§2) Briefly, the ALKs enzymatic assay was initiated by dispense 2.5 μl enzyme in 1× kinase reaction buffer. The assay plate was then added with compounds followed by incubation at room temperature for 10 minutes. Then 2.5 μl/well substrate was added.

ALK2 [5] = molecular target: T3, ALK2 (Homo sapiens, UniProt Q04771); experiment: TR-FRET enzymatic ALK kinase assay, ALK2
T3 sequence (Q04771 21-509): T2 sequence (P37172 21-509) with V1M, Q10P, I121L, E162D, S310P
Description: as §2

ALK3 = ALK3 (Homo sapiens, UniProt P36894); experiment: TR-FRET enzymatic ALK kinase assay, ALK3
Description: as §2

ALK4 = molecular target: T4, ALK4 (Homo sapiens, UniProt P36896); experiment: TR-FRET enzymatic ALK kinase assay, ALK4
T4 sequence (P36896 24-505): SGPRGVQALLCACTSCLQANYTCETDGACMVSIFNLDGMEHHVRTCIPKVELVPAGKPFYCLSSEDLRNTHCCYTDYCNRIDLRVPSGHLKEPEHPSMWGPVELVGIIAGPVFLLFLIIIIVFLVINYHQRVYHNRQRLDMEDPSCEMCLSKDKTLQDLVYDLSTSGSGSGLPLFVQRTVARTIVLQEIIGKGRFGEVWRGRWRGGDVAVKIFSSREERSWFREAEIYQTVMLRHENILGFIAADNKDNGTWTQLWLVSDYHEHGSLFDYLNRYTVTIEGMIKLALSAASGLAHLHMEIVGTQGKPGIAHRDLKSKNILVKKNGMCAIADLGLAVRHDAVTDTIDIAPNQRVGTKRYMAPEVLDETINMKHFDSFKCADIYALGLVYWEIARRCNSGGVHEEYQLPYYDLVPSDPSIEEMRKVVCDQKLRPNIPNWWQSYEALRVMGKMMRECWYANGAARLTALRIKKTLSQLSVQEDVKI
Description: as §2

ALK5 = molecular target: T5, ALK5 (Homo sapiens, UniProt P36897); experiment: TR-FRET enzymatic ALK kinase assay, ALK5
T5 sequence (P36897 34-503): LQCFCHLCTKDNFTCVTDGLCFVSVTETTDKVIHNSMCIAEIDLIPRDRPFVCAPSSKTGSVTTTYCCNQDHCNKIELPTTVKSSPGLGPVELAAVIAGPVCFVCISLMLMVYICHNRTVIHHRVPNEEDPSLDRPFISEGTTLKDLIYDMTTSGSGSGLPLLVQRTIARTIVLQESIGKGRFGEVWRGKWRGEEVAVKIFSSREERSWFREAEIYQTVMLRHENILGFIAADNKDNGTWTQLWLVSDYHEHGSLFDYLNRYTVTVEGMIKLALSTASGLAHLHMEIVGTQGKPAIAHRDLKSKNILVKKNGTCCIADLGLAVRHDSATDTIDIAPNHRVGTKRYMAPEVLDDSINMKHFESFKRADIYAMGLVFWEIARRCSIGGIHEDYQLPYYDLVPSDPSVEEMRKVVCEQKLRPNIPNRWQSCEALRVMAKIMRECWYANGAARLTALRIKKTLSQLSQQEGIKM
Description: Six ALK kinase enzyme assays were developed for determination of compound activities on ALK1, ALK2, ALK3, ALK4, ALK5 and ALK6.
as §2

ALK6 = ALK6 (Homo sapiens, UniProt O00238); experiment: TR-FRET enzymatic ALK kinase assay, ALK6
Description: as §2

ALK2 [6] = molecular target: T2, ALK2; experiment: In-cell Western ALK2 assay (C2C12 cells, BMP6 as agonist); format: cell-based; details: read-out: BMP6 ICW
From the text: 3. In-Cell Western ALK1 and ALK2 Assays in 384-Well Plate Format.
We also optimized cell-based In-cell Western assays for measurements of ALK1 and ALK2 activities that were used to determine compound activities in these two kinases. The cell lines and agonists used were same as described in above cell-based HTRF ALK1 and ALK2 assays. The initial cell plating and compound treatment were also same. The main difference is the detection of phosphorylation status of SMAD1. In t-cell Western assay, the cells were fixed and phosphorylation status of SMAD1 was detected by the ELISA instead of using the HTRF assay kit in above assay.
HyClone Fetal Bovine Serum was obtained from GE healthcare life sciences (Logan, Utah). BMP6 and BMP9 were purchased from R&D System (R&D). Anti-P-SMAD 1/5/8 rabbit mAb and anti-rabbit IgG, HRP-Linked antibody were purchased from Cell Signaling Technology (Danvers, Mass.). BioFX Chemiluminescent Ultra-Sensitive HRP Microwell Substrate ECL Reagent was obtained from SurModics (Edina, Minn.). The compound plates and the white solid MB assay plates were from Greiner Bio-one (Monroe, N.C.).
as §1, with “Similarly as described in above HTRF” for “HTRF”, “cell-based assay, this assay was” for “optimization experiments were”, “compound dilutions in DMSO” for “compounds”
The cells were washed in the plate washer with PBS and blocked with 2% BSA in PBS for 1 h at room temperature on the rotator. After removing the blocking reagent, the cells were incubated with the anti-p-SMAD1 antibody in 2% BSA in PBS for overnight at 4° C. on rotator. The cells were washed with PBS in the plate washer and incubated with HRP conjugated second antibody in 2% BSA in PBS for 1 hour at room temperature. After a cell wash with PBS, ECL detection reagent was added and the plate was read in the luminesce mode in the ViewLux plate reader.

Chain of ALK6 (O00238 14-502): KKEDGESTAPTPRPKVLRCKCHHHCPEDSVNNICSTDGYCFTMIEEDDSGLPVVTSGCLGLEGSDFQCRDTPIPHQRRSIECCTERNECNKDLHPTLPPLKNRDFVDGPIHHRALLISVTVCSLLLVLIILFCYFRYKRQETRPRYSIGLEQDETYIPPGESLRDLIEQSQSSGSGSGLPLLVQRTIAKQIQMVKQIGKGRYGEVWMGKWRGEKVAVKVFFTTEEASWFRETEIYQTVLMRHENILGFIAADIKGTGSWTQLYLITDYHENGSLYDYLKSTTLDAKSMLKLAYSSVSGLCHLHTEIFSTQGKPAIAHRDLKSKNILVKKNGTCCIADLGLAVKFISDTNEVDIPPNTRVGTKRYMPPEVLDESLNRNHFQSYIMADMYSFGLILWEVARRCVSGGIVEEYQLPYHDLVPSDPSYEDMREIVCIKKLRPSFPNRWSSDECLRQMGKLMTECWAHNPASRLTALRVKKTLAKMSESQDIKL
Chain of ALK3 (P36894 24-532): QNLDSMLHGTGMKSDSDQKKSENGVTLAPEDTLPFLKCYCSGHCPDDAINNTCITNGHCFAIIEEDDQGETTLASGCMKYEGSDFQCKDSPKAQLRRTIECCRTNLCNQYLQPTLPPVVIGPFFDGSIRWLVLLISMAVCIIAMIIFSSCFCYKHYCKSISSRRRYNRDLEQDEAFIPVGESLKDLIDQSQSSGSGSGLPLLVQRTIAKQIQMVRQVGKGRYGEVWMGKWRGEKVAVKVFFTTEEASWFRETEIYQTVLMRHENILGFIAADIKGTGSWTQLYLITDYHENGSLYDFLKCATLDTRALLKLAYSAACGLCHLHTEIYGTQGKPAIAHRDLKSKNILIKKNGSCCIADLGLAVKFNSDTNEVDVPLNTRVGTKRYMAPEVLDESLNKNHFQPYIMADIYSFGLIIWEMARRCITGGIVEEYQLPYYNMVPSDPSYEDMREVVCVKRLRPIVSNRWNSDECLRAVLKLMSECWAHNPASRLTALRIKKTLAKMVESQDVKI
Chain of ALK1 (Homo sapiens, UniProt P37023) (P37023 22-503): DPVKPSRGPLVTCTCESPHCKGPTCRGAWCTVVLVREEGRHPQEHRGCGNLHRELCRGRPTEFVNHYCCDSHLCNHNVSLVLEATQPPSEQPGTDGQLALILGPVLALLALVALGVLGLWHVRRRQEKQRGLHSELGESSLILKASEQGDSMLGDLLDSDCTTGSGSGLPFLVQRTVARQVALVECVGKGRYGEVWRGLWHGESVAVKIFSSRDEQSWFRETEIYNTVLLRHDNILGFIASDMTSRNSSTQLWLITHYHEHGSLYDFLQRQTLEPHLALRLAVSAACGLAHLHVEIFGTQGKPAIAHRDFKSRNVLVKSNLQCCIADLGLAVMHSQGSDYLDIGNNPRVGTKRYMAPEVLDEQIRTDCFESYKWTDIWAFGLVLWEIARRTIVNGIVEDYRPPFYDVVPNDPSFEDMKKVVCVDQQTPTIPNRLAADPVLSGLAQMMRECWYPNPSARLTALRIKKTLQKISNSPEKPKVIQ

SMILES	IC50 (ALK1 [1])	IC50 (ALK2 [2]; HTRF assay, BMP6 as agonist, C2C12 cells, read-out: BMP6 HTRF)	IC50 (ALK2 [2]; cell-based assay, BMP6, read-out: Cell IC50 BMP6)	IC50 (BMP4)	IC50 [3]	IC50 (ALK1 [4])	IC50 (ALK2 [5])	IC50 (ALK3)	IC50 (ALK4)	IC50 (ALK5)	IC50 (ALK6)	IC50 (ALK2 [6])
C[C@@H]1CNC[C@H](C)N1c1ccc(-c2cnc3c(-c4ccc(CO)c5ccccc45)cnn3c2)cc1 [Compound 22, (4-(6-(4-((2R,6S)-2,6-dimethylpiperazin-1-yl)phenyl)pyrazolo[1,5-a]pyrimidin-3-yl)naphthalen-1-yl)methanol]	33 nM	47 nM	2 nM	820 nM	243 nM	4 nM	9.7 nM	34 nM	1360 nM	4660 nM	647 nM	–
CS(=O)(=O)c1cccc(-c2cnn3cc(-c4ccc(C5CCNC5)cc4)cnc23)c1 (stereo not shown) [Compound 129, 3-(3-(methylsulfonyl)phenyl)-6-(4-(pyrrolidin-3-yl)phenyl)pyrazolo[1,5-a]pyrimidine]	–	–	–	–	–	490 nM	63 nM	> 10000 nM	> 10000 nM	> 10000 nM	> 10000 nM	580 nM and 152 nM
CS(=O)(=O)c1cccc(-c2cnn3cc(-c4ccc(C5CCCCN5)cc4)cnc23)c1 (stereo not shown) [Compound 137, 3-(3-(methylsulfonyl)phenyl)-6-(4-(piperidin-2-yl)phenyl)pyrazolo[1,5-a]pyrimidine]	–	–	–	–	–	250 nM	75 nM	> 10000 nM	> 10000 nM	> 10000 nM	> 10000 nM	150 nM and 250 nM

From US10513521B2, “Compositions and methods for inhibiting BMP” (The Brigham and Women's Hospital, Inc., priority 2014, dated 2019)
